Assay results taken from ChEMBL document CHEMBL1649565, “Besifloxacin, a novel fluoroquinolone, has broad-spectrum in vitro activity against aerobic and anaerobic bacteria” (Antimicrob Agents Chemother, 2009).
≈ marks a conversion by molar mass, not a printed value. Calls of active or inactive are those of the source. The calls are words filed in the database; no cut-off is given here.

What was measured:
Morganella morganii = assay: Antibacterial activity against Morganella morganii by CLSI M7-A7 method; format: functional
Klebsiella pneumoniae = assay: Antibacterial activity against Klebsiella pneumoniae by CLSI M7-A7 method; format: functional
Moraxella catarrhalis = assay: Antibacterial activity against Moraxella catarrhalis by CLSI M7-A7 method; format: functional
[1] = system: Staphylococcus epidermidis; assay: Antibacterial activity against ciprofloxacin-susceptible and methicillin-resistant Staphylococcus epidermidis by CLSI M100-S18 method; format: functional
Pseudomonas aeruginosa = assay: Antibacterial activity against ciprofloxacin-susceptible Pseudomonas aeruginosa by CLSI M7-A7 method; format: functional
Listeria monocytogenes = assay: Antibacterial activity against Listeria monocytogenes by CLSI M100-S18 method; format: functional
Haemophilus influenzae [2] = assay: Antibacterial activity against ciprofloxacin-susceptible Haemophilus influenzae assessed as percent susceptible isolates by CLSI M7-A7 method; format: functional
Staphylococcus hominis = assay: Antibacterial activity against Staphylococcus hominis by CLSI M100-S18 method; format: functional
Proteus mirabilis [3] = assay: Antibacterial activity against Proteus mirabilis assessed as percent susceptible isolates by CLSI M7-A7 method; format: functional
Staphylococcus aureus [4] = assay: Antibacterial activity against non-ciprofloxacin-susceptible and methicillin-susceptible Staphylococcus aureus assessed as percent susceptible isolates by CLSI M100-S18 method; format: functional
Serratia marcescens = assay: Antibacterial activity against Serratia marcescens by CLSI M7-A7 method; format: functional
Streptococcus pyogenes = assay: Antibacterial activity against Streptococcus pyogenes by CLSI M100-S18 method; format: functional
Streptococcus pneumoniae [5] = assay: Antibacterial activity against levofloxacin-susceptible Streptococcus pneumoniae by CLSI M100-S18 method; format: functional
[6] = system: Staphylococcus lugdunensis; assay: Antibacterial activity against Staphylococcus lugdunensis assessed as percent susceptible isolates by CLSI M100-S18 method; format: functional
Enterobacter cloacae [7] = assay: Antibacterial activity against Enterobacter cloacae by CLSI M7-A7 method; format: functional
Streptococcus sp. = assay: Antibacterial activity against Lancefield Streptococcus sp. group F by CLSI M100-S18 method; format: functional
[8] = Antibacterial activity against Lancefield Streptococcus sp. 'group G' by CLSI M100-S18 method; format: functional
Klebsiella oxytoca = assay: Antibacterial activity against Klebsiella oxytoca by CLSI M7-A7 method; format: functional
Acinetobacter baumannii = assay: Antibacterial activity against Acinetobacter baumannii by CLSI M7-A7 method; format: functional
[9] = system: Staphylococcus epidermidis; assay: Antibacterial activity against non-ciprofloxacin-susceptible and methicillin-susceptible Staphylococcus epidermidis by CLSI M100-S18 method; format: functional
Streptococcus oralis = assay: Antibacterial activity against Streptococcus oralis by CLSI M100-S18 method; format: functional
Haemophilus influenzae [10] = assay: Antibacterial activity against ciprofloxacin-susceptible Haemophilus influenzae by CLSI M7-A7 method; format: functional
[11] = system: Staphylococcus lugdunensis; assay: Antibacterial activity against Staphylococcus lugdunensis by CLSI M100-S18 method; format: functional
Streptococcus agalactiae = assay: Antibacterial activity against Streptococcus agalactiae by CLSI M100-S18 method; format: functional
[12] = system: Staphylococcus epidermidis; assay: Antibacterial activity against ciprofloxacin-susceptible and methicillin-resistant Staphylococcus epidermidis assessed as percent susceptible isolates by CLSI M100-S18 method; format: functional
Streptococcus equinus = assay: Antibacterial activity against Streptococcus bovis by CLSI M100-S18 method; format: functional
Citrobacter freundii [13] = assay: Antibacterial activity against Citrobacter freundii by CLSI M7-A7 method; format: functional
[14] = system: Acinetobacter calcoaceticus; assay: Antibacterial activity against Acinetobacter calcoaceticus by CLSI M7-A7 method; format: functional
Staphylococcus warneri [15] = assay: Antibacterial activity against Staphylococcus warneri by CLSI M100-S18 method; format: functional
Klebsiella aerogenes = assay: Antibacterial activity against Enterobacter aerogenes assessed as percent susceptible isolates by CLSI M7-A7 method; format: functional
Proteus mirabilis [16] = assay: Antibacterial activity against Proteus mirabilis by CLSI M7-A7 method; format: functional
[17] = system: Staphylococcus saprophyticus; assay: Antibacterial activity against Staphylococcus saprophyticus assessed as percent susceptible isolates by CLSI M100-S18 method; format: functional
[18] = system: Staphylococcus haemolyticus; assay: Antibacterial activity against Staphylococcus haemolyticus assessed as percent susceptible isolates by CLSI M100-S18 method; format: functional
Legionella pneumophila = assay: Antibacterial activity against Legionella pneumophila by CLSI M7-A7 method; format: functional
Haemophilus influenzae [19] = assay: Antibacterial activity against non-ciprofloxacin-susceptible Haemophilus influenzae by CLSI M7-A7 method; format: functional
Enterobacter cloacae [20] = assay: Antibacterial activity against Enterobacter cloacae assessed as percent susceptible isolates by CLSI M7-A7 method; format: functional
Citrobacter freundii [21] = assay: Antibacterial activity against Citrobacter freundii assessed as percent susceptible isolates by CLSI M7-A7 method; format: functional
Streptococcus pneumoniae [22] = assay: Antibacterial activity against non-levofloxacin susceptible Streptococcus pneumoniae assessed as percent susceptible isolates by CLSI M100-S18 method; format: functional
[23] = system: Staphylococcus haemolyticus; assay: Antibacterial activity against Staphylococcus haemolyticus by CLSI M100-S18 method; format: functional
Enterococcus faecium = assay: Antibacterial activity against vancomycin- resistant Enterococcus faecium by CLSI M100-S18 method; format: functional
[24] = system: Staphylococcus epidermidis
Staphylococcus warneri [25] = assay: Antibacterial activity against Staphylococcus warneri assessed as percent susceptible isolates by CLSI M100-S18 method; format: functional
[26] = system: Stenotrophomonas maltophilia; assay: Antibacterial activity against levofloxacin-susceptible Stenotrophomonas maltophilia by CLSI M7-A7 method; format: functional
Staphylococcus aureus [27] = assay: Antibacterial activity against non-ciprofloxacin-susceptible and methicillin-susceptible Staphylococcus aureus by CLSI M100-S18 method; format: functional
Citrobacter koseri = assay: Antibacterial activity against Citrobacter koseri by CLSI M7-A7 method; format: functional
Streptococcus pneumoniae [28] = assay: Antibacterial activity against levofloxacin susceptible Streptococcus pneumoniae assessed as percent susceptible isolates by CLSI M100-S18 method; format: functional
Staphylococcus aureus [29] = assay: Antibacterial activity against ciprofloxacin-susceptible and methicillin-resistant Staphylococcus aureus assessed as percent susceptible isolates by CLSI M100-S18 method; format: functional

## NC[C@H]1O[C@H](O[C@H]2[C@H](O)[C@@H](O[C@H]3O[C@H](CO)[C@@H](O)[C@H](N)[C@H]3O)[C@H](N)C[C@@H]2N)[C@H](N)C[C@@H]1O [TOBRAMYCIN]
Morganella morganii
  MIC50: 1 µg/mL (≈ 2.14 µM)
  MIC90: 4 µg/mL (≈ 8.56 µM)
Klebsiella pneumoniae
  MIC50: 0.25 µg/mL (≈ 0.535 µM)
  MIC90: 1 µg/mL (≈ 2.14 µM)
Moraxella catarrhalis
  MIC50: 0.03 µg/mL (≈ 0.0642 µM)
  MIC90: 0.03 µg/mL (≈ 0.0642 µM)
[1]
  MIC50: 0.03 µg/mL (≈ 0.0642 µM)
Pseudomonas aeruginosa
  MIC50: 2 µg/mL (≈ 4.28 µM)
  MIC90: 2 µg/mL (≈ 4.28 µM)
Listeria monocytogenes
  MIC50: 0.12 µg/mL (≈ 0.257 µM)
  MIC90: 0.12 µg/mL (≈ 0.257 µM)
Haemophilus influenzae [2]
  Activity: inactive
Staphylococcus hominis
  MIC50: 16 µg/mL (≈ 34.2 µM)
  MIC90: 32 µg/mL (≈ 68.4 µM)
Proteus mirabilis [3]
  Activity: 100%
Staphylococcus aureus [4]
  Activity: 27.3%
Serratia marcescens
  MIC50: 0.5 µg/mL (≈ 1.07 µM)
  MIC90: 1 µg/mL (≈ 2.14 µM)
Streptococcus pyogenes
  MIC50: 16 µg/mL (≈ 34.2 µM)
  MIC90: 16 µg/mL (≈ 34.2 µM)
Streptococcus pneumoniae [5]
  MIC50: 8 µg/mL (≈ 17.1 µM)
  MIC90: 16 µg/mL (≈ 34.2 µM)
[6]
  Activity: 46.7%
Enterobacter cloacae [7]
  MIC50: 0.25 µg/mL (≈ 0.535 µM)
  MIC90: 1 µg/mL (≈ 2.14 µM)
Streptococcus sp.
  MIC50: 0.06 µg/mL (≈ 0.128 µM)
  MIC90: > 8 µg/mL
[8]
  MIC50: 0.06 µg/mL (≈ 0.128 µM)
  MIC90: > 8 µg/mL
Klebsiella oxytoca
  MIC50: 0.5 µg/mL (≈ 1.07 µM)
  MIC90: 1 µg/mL (≈ 2.14 µM)
Acinetobacter baumannii
  MIC50: 4 µg/mL (≈ 8.56 µM)
  MIC90: > 64 µg/mL
[9]
  MIC50: 2 µg/mL (≈ 4.28 µM)
Streptococcus oralis
  MIC50: 0.06 µg/mL (≈ 0.128 µM)
  MIC90: > 8 µg/mL
Haemophilus influenzae [10]
  MIC50: 2 µg/mL (≈ 4.28 µM)
  MIC90: 8 µg/mL (≈ 17.1 µM)
[11]
  MIC50: 0.12 µg/mL (≈ 0.257 µM)
  MIC90: 32 µg/mL (≈ 68.4 µM)
Streptococcus agalactiae
  MIC50: 0.06 µg/mL (≈ 0.128 µM)
  MIC90: > 8 µg/mL
[12]
  Activity: 33.3%
Streptococcus equinus
  MIC50: 0.06 µg/mL (≈ 0.128 µM)
  MIC90: > 8 µg/mL
Citrobacter freundii [13]
  MIC50: 0.25 µg/mL (≈ 0.535 µM)
  MIC90: 0.5 µg/mL (≈ 1.07 µM)
[14]
  MIC50: 0.25 µg/mL (≈ 0.535 µM)
  MIC90: 1 µg/mL (≈ 2.14 µM)
Staphylococcus warneri [15]
  MIC50: 0.06 µg/mL (≈ 0.128 µM)
  MIC90: 8 µg/mL (≈ 17.1 µM)
Klebsiella aerogenes
  Activity: 100%
Proteus mirabilis [16]
  MIC50: 1 µg/mL (≈ 2.14 µM)
  MIC90: 4 µg/mL (≈ 8.56 µM)
[17]
  Activity: 54.5%
[18]
  Activity: 26.7%
Legionella pneumophila
  MIC50: 0.12 µg/mL (≈ 0.257 µM)
  MIC90: 1 µg/mL (≈ 2.14 µM)
Haemophilus influenzae [19]
  MIC50: 4 µg/mL (≈ 8.56 µM)
  MIC90: 8 µg/mL (≈ 17.1 µM)
Enterobacter cloacae [20]
  Activity: 100%
Citrobacter freundii [21]
  Activity: 99%
Streptococcus pneumoniae [22]
  Activity: inactive
[23]
  MIC50: 2 µg/mL (≈ 4.28 µM)
  MIC90: 32 µg/mL (≈ 68.4 µM)
Enterococcus faecium
  MIC50: > 128 µg/mL
  MIC90: > 128 µg/mL
[24]
  MIC90: inactive
Staphylococcus warneri [25]
  Activity: 34%
[26]
  MIC: 2 µg/mL (≈ 4.28 µM)
Staphylococcus aureus [27]
  MIC50: 1 µg/mL (≈ 2.14 µM)
  MIC90: > 32 µg/mL
Citrobacter koseri
  MIC50: 0.5 µg/mL (≈ 1.07 µM)
  MIC90: 1 µg/mL (≈ 2.14 µM)
Streptococcus pneumoniae [28]
  Activity: inactive
Staphylococcus aureus [29]
  Activity: 68.4%
